Data published in patent publication US20230263792A1, “USE OF 2,3,5-SUBSTITUTED THIOPHENE COMPOUND FOR PREVENTING, ALLEVIATION, OR TREATING MASTOCYTOSIS” (PHAROS IBIO CO., LTD, priority 2020, published 2023).

Test system: HMC-1.2 cells subcutaneous tumor
Test: Tumor growth inhibition in mastocytosis mouse model with HMC-1.2 cell line
Format: in vivo, NOD SCID female mice
Description: As mice, 6-8-week-old NOD SCID female mice (18 to 22 g) (GemPharmatech Co., Ltd.) were prepared. Mice were acclimatized for 7 days before use in the experiment, and mice with abnormal health were excluded from the experiment. Mice were bred in a cage (300×180×150 mm) at a 22±3° C. and a relative humidity of 40% to 70% with a 12-hr light/12-hr dark cycle. Mice were allowed access to sterilized dry granular food (Beijing Keaoxieli Feed Co., Ltd., Beijing, China) and water ad libitum for the entire experimental period except for the period specified in the protocol.
50 ml of HMC-1.2 cells suspension-cultured in a 75T flask were placed in a conical tube and centrifuged at 1,200 rpm for 2 minutes, centrifuged with DPBS (Dulbecco's Phosphate-Buffered Saline, Welgene) at 1,200 rpm for 2 minutes, washed, and then suspended in RPMI1640 (Welgene) without antibiotics and fetal bovine serum (FBS).
Thereafter, when the average tumor volume reached 150 to 200 mm^3, 4 mice were assigned to each group so that the average tumor volume at each group and treatment time was the same between the groups.
In addition, the width and length of the tumor were measured using a caliper at 3-day intervals, and the tumor volume was calculated using the following equation.
(V: tumor volume, W: tumor width, and L: tumor length)
In addition, the mice were sacrificed 3 weeks after the start of oral administration of each drug and the tumor weight was measured using a digital scale. For each data, one-way ANOVA was used to test the significance of each group.

[1] = 7 mg/kg oral once daily for 3 weeks
[2] = 20 mg/kg oral once daily for 3 weeks
[3] = 40 mg/kg oral once daily for 3 weeks
[4] = 80 mg/kg oral once daily for 3 weeks

## NC(=O)Nc1cc(C#Cc2cccc(F)c2)sc1C(=O)N[C@H]1CCCNC1 [PHI-101]
[1]
  Tumor growth inhibition (TGI) (%) Timor volume: 30.2%
  Tumor growth inhibition (TGI) (%) Tumor weight: 32.7%
[2]
  Tumor growth inhibition (TGI) (%) Timor volume: 43.6%
  Tumor growth inhibition (TGI) (%) Tumor weight: 51.6%
40 mg/kg or more, versus control compounds, FIGS. 9 to 12
  growth of mastocytosis cells in mouse model: significantly inhibited compared to that in the group treated with each control compound
[3]
  Tumor growth inhibition (TGI) (%) Timor volume: 68.4%
  Tumor growth inhibition (TGI) (%) Tumor weight: 68.3%
[4]
  Tumor growth inhibition (TGI) (%) Timor volume: 78.5%
  Tumor growth inhibition (TGI) (%) Tumor weight: 82.7%
